{"source": "paper PMC4624780", "about": "(PLoS ONE, 2015)", "tested_on": "FMDV 3A protein homodimerization in BHK-21 cells", "format": "cell-based, foot-and-mouth disease virus (FMDV)", "note": "Entries after “also recorded” stand apart in the source; their conditions may differ. Square brackets hold non-standard residues; d marks the D form. Peptide text beside a SMILES is read from it. Ahx = NCCCCCC(=O)O"}
{"molecule": "CC[C@H](C)[C@H](NC(=O)[C@H](CC(C)C)NC(=O)[C@@H]1CCCN1C(=O)[C@H](CCCNC(=N)N)NC(=O)[C@H](CC(C)C)NC(=O)[C@H](CCC(=O)O)NC(=O)CCCCCNC(=O)[C@H](CCCNC(=N)N)NC(=O)[C@H](CCCNC(=N)N)NC(=O)[C@H](CCCNC(=N)N)NC(=O)[C@H](CCCNC(=N)N)NC(=O)[C@H](CCCNC(=N)N)NC(=O)[C@H](CCCNC(=N)N)NC(=O)[C@@H](N)CCCNC(=N)N)C(=O)N[C@@H](CCC(N)=O)C(=O)N[C@@H](CCC(N)=O)C(N)=O", "note": "[Peptide R7-α2] (H-RRRRRRR[Ahx]ELRPLIQQ-NH2; N-terminus assumed)", "values": [{"measurement": "3A dimerization (PLA fluorescent dots relative to cells incubated with no peptide)", "value": "lack of effect"}]}
{"molecule": "RRRRRRRXFFEGMVHDS [Peptide R7-α1]", "values": [{"measurement": "3A dimerization (PLA fluorescent dots relative to cells incubated with no peptide)", "value": "decreasing trend; also recorded: higher inhibitions"}]}
